From the supplement of paper PMC6315032

Assays:
Test in all cases: apparent dissociation constant (pKDapp, Kinobeads competition, Cheng-Prusoff corrected) (-log10 M); higher = tighter binding
Conditions in all cases: affinity matrix / lysate: Kinobeads, mixed HEK293/K-562/placenta lysate
CSNK1G2 = CSNK1G2 (UniProt P78368)
ROCK2 = ROCK2 (UniProt O75116)
AURKC = AURKC (UniProt Q9UQB9)
LCK = LCK (UniProt P06239)
MAP4K1 = MAP4K1 (UniProt Q92918)
PRKACA = PRKACA (UniProt P17612)
PAK6 = PAK6 (UniProt Q9NQU5)
RP6-213H19 1 = molecular target: RP6-213H19 1
ADCK5 = ADCK5 (UniProt Q3MIX3)
UHMK1 = UHMK1 (UniProt Q8TAS1)
MAP3K11 = MAP3K11 (UniProt Q16584)
CSNK1G3 = CSNK1G3 (UniProt Q9Y6M4)
ACVRL1 = ACVRL1 (UniProt P37023)
SGK1 = SGK1 (UniProt O00141)
MAPK15 = MAPK15 (UniProt Q8TD08)
RNASEL = RNASEL (UniProt Q05823)
EIF2AK3 = EIF2AK3 (UniProt Q9NZJ5)

Measured: apparent dissociation constant (-log10 M)

Sequence of ACVRL1 (P37023 whole entry): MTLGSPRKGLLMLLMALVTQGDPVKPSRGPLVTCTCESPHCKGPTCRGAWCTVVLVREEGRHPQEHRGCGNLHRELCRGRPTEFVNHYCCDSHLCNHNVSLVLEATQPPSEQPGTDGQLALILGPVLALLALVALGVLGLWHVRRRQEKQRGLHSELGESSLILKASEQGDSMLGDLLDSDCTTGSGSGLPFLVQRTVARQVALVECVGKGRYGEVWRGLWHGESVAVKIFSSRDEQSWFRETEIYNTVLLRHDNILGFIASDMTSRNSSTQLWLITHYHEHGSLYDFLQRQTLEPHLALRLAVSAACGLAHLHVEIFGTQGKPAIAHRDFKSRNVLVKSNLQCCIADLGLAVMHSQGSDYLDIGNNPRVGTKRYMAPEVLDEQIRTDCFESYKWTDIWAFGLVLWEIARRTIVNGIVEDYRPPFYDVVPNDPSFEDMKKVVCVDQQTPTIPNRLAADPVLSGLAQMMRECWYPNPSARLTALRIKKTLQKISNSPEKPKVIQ
Sequence of EIF2AK3 (Q9NZJ5 whole entry): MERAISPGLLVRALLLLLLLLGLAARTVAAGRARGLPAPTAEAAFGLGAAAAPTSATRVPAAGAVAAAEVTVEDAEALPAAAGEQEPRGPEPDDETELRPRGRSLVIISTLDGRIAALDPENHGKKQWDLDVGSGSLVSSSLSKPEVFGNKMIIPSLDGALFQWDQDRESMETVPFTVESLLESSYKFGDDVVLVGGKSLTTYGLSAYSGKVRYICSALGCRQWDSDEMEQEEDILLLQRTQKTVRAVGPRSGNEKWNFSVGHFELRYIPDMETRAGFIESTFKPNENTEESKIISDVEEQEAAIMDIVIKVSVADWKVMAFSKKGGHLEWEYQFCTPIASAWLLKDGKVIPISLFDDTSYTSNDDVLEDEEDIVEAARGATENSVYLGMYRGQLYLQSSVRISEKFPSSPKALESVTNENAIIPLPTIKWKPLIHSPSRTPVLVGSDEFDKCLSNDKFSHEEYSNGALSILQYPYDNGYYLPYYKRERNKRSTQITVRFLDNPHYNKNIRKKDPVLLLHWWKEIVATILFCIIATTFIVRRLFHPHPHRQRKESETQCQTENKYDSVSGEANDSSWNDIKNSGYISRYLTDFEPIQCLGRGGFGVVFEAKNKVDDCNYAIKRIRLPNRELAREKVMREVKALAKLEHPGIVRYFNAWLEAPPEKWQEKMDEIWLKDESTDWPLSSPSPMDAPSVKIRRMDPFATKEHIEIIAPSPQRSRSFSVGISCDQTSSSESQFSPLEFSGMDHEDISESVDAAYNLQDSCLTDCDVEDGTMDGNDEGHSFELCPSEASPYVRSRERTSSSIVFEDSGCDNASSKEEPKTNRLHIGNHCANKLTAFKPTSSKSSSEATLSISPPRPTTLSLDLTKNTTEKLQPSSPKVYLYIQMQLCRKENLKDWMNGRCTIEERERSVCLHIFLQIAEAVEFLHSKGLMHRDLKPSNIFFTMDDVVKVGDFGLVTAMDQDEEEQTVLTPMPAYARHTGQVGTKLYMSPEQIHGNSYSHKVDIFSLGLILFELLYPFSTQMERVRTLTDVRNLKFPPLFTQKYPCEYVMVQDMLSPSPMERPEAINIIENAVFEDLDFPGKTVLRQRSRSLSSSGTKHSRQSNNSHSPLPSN
Sequence of LCK (P06239 whole entry, looked up): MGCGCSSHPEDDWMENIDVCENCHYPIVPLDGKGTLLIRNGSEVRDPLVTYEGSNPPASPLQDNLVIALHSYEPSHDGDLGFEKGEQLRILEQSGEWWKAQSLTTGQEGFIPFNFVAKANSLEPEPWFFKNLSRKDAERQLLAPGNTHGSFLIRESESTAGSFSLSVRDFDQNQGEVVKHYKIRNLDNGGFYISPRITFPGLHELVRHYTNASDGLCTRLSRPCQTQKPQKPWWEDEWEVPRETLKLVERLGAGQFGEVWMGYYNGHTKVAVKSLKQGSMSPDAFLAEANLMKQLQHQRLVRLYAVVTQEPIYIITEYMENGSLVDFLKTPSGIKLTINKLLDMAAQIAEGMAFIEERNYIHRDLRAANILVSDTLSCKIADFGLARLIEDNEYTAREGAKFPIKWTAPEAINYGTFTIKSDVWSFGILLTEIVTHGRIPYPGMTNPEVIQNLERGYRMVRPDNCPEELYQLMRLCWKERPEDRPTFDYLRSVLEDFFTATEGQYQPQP
Sequence of PAK6 (Q9NQU5 whole entry, looked up): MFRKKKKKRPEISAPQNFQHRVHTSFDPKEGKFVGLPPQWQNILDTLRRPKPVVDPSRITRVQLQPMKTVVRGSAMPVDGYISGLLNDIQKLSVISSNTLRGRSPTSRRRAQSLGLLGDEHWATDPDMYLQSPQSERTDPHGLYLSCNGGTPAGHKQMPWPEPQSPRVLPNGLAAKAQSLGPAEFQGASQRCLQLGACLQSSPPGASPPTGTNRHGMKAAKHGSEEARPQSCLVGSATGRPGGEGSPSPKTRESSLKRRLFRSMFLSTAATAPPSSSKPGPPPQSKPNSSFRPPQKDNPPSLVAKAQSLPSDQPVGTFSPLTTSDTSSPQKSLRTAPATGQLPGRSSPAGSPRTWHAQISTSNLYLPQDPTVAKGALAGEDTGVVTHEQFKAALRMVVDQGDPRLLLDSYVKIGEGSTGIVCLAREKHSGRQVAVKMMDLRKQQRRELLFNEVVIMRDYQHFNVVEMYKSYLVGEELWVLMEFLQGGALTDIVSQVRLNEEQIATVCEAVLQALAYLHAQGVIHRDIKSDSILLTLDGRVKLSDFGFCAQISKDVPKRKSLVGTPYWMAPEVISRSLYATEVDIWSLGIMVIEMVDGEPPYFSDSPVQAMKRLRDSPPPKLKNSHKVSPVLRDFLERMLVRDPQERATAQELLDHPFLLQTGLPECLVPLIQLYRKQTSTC
Sequence of CSNK1G2 (P78368 whole entry, looked up): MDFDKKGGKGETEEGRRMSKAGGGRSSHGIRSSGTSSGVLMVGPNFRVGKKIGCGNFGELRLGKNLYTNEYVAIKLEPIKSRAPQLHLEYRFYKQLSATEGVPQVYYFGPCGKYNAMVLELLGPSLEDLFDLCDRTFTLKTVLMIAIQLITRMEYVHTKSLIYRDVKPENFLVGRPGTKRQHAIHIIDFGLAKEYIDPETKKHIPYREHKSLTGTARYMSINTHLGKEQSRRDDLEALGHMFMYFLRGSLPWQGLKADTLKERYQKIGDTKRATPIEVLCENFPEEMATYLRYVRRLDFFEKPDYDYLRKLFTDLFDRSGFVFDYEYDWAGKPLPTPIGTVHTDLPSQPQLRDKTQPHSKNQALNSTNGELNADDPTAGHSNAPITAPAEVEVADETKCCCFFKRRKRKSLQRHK
Sequence of SGK1 (O00141 whole entry): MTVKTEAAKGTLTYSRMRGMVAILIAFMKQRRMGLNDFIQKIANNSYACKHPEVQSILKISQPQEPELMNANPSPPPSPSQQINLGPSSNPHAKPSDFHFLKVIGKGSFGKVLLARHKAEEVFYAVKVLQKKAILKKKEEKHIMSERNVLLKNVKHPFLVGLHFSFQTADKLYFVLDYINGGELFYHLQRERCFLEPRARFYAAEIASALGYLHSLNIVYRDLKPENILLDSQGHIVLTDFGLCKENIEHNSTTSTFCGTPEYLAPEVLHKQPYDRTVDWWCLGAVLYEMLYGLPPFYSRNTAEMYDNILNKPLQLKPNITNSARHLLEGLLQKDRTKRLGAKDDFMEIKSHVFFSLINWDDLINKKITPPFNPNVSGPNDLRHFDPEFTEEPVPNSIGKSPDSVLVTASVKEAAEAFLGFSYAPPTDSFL
Sequence of ADCK5 (Q3MIX3 whole entry): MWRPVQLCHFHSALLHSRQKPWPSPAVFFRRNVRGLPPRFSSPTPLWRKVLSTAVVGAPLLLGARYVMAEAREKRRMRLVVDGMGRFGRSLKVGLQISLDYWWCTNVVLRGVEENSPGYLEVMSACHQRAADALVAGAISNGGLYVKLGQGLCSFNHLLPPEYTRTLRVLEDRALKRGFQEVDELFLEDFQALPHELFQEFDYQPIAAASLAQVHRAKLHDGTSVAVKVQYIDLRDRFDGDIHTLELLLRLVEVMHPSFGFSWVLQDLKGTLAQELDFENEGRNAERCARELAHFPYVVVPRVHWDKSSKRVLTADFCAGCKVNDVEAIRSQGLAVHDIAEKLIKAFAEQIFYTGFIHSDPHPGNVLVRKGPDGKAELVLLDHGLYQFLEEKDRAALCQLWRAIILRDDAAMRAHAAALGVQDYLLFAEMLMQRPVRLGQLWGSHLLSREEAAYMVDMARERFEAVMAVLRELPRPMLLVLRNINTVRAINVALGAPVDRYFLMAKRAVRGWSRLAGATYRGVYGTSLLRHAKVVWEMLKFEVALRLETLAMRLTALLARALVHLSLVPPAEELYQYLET
Sequence of RNASEL (Q05823 whole entry): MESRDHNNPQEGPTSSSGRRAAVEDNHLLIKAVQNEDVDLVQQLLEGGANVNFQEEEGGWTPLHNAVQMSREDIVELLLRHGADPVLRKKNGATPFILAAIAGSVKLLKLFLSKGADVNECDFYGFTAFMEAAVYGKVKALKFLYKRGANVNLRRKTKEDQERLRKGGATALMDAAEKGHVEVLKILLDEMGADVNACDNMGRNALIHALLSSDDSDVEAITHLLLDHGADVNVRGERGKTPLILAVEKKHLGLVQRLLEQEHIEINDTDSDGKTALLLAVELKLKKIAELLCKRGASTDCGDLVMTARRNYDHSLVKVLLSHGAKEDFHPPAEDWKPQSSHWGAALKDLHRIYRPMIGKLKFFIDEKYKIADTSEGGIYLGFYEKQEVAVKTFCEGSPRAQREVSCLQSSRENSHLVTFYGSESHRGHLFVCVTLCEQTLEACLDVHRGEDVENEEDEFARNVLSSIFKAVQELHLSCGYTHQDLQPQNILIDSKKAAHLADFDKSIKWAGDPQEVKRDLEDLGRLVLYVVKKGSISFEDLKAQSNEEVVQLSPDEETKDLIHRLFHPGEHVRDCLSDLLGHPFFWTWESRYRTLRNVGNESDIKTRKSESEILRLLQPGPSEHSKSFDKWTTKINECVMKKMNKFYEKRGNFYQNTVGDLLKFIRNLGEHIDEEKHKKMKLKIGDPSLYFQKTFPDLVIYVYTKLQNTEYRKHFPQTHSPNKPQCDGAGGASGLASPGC

COc1ccc(-c2ccc3c(N4CCOC[C@@H]4C)nc(N4CCOC[C@@H]4C)nc3n2)cc1CO [AZD8055]
< 6: CSNK1G2 | ROCK2 | AURKC

CCNC(=O)Nc1ccc(-c2nc(N3CCOC[C@@H]3C)c3c(n2)C(C)(C)S(=O)(=O)C3)cc1 [CZ415]
not listed: CSNK1G2 | ROCK2 | AURKC
< 6: all other assays above
